Assay type in all cases: cell-based
The test system of assay [1] is HGC-27. Kind of assay: 144-hour CellTiter-Glo 2.0 proliferation assay. To be noted: Homo sapiens; HGC-27 gastric; monotherapy; read-out: mono GI50. The method, then: (§1) Combination profiling was carried out in a panel of cancer cell lines utilising Horizon Discovery's High Throughput Screening platform.
(§2) Cell lines that have been preserved in liquid nitrogen are thawed and expanded in growth media (see Table 1). Once cells have reached expected doubling times, screening begins. Cells are seeded in 25 μl of growth media in black 384-well tissue culture treated plates (seeding density as noted in Table 11).
(§3) Cells are equilibrated in assay plates via centrifugation and placed at 37° C. 5% CO2 for twenty-four hours before treatment.
(§4) Compounds are transferred to assay plates using and Echo acoustic liquid handling system. 25 nl of each compound was added at the appropriate concentration for all combination dose points. Therefore, final assay volume would be […]. Assay plates are incubated with compound for 6 days and are then analysed using CellTiter-Glo 2.0. All data points are collected via automated processes and are subject to quality control and analysed.
(§5) Growth Inhibition (GI) is reported as a measure of cell growth. The GI percentages are calculated by applying the following test and equation: […]
(§6) where T is the signal measure for a test article, V is the untreated/vehicle-treated control measure, and Vo is the untreated/vehicle control measure at time zero (also colloquially referred as T0 plates). This formula is derived from the Growth Inhibition calculation used in the National Cancer Institute's NCI-60 high throughput screen. For the purposes of this report, all data analysis was performed in Growth Inhibition (except where noted).
A general note: Cellular ATP, detected with luciferase, serves as a proxy for viable cell number.

The test system of assay [2] is PA-1. The experiment in a line: 144-hour CellTiter-Glo 2.0 proliferation assay. Particulars: Homo sapiens; PA-1 ovarian; monotherapy; read-out: mono GI50. The protocol:
as §1, §2, §3, §4, §5, §6

Assay [3] deals with A2780. The experiment in a line: 144-hour CellTiter-Glo 2.0 proliferation assay. To be noted: Homo sapiens; A2780 ovarian; monotherapy; read-out: mono GI50. The protocol:
as §1, §2, §3, §4, §5, §6

The subject of assay [4] is NCI-SNU-1. Kind of assay: 144-hour CellTiter-Glo 2.0 proliferation assay. To be noted: NCI-SNU-1 gastric; monotherapy; read-out: mono GI50. The method, then:
as §1, §2, §3, §4, §5, §6

Assay [5] relates to OV7. The experiment in a line: 144-hour CellTiter-Glo 2.0 proliferation assay. To be noted: OV7 ovarian; monotherapy; read-out: mono GI50. The method, then: as §1, §2, §3, §4, §5, §6
Assay [6] has as its system OVK18. The experiment in a line: 144-hour CellTiter-Glo 2.0 proliferation assay. To be noted: OVK18 ovarian; monotherapy; read-out: mono GI50. The protocol: as §1, §2, §3, §4, §5, §6
Assay [7] deals with HPAF-II. Kind of assay: 144-hour CellTiter-Glo 2.0 proliferation assay. Particulars: Homo sapiens; HPAF-II pancreatic; monotherapy; read-out: mono GI50. The method, then:
as §1, §2, §3, §4, §5, §6

Assay [8] has as its system OVCAR-3. The experiment in a line: 144-hour CellTiter-Glo 2.0 proliferation assay. Particulars: Homo sapiens; OVCAR-3 ovarian; monotherapy; read-out: mono GI50. The method, then:
as §1, §2, §3, §4, §5, §6

Assay [9] relates to SNU-324. The experiment in a line: 144-hour CellTiter-Glo 2.0 proliferation assay. To be noted: SNU-324 pancreatic; monotherapy; read-out: mono GI50. The protocol: as §1, §2, §3, §4, §5, §6
The subject of assay [10] is MIA PaCa-2. Kind of assay: 144-hour CellTiter-Glo 2.0 proliferation assay. Particulars: monotherapy, read-out: mono GI50. The method, then: as §1, §2, §3, §4, §5, §6
The subject of assay [11] is KE-39. The experiment in a line: 144-hour CellTiter-Glo 2.0 proliferation assay. Particulars: KE-39 gastric; monotherapy; read-out: mono GI50. The method, then: as §1, §2, §3, §4, §5, §6
The subject of assay [12] is PSN1. Kind of assay: 144-hour CellTiter-Glo 2.0 proliferation assay. To be noted: monotherapy, read-out: mono GI50. The method, then:
as §1, §2, §3, §4, §5, §6

Assay [13] concerns IM-95. Kind of assay: 144-hour CellTiter-Glo 2.0 proliferation assay. To be noted: Homo sapiens, IM95; IM-95 gastric; monotherapy; read-out: mono GI50. The protocol:
as §1, §2, §3, §4, §5, §6

Assay [14] has as its system JHOM-1. Kind of assay: 144-hour CellTiter-Glo 2.0 proliferation assay. To be noted: JHOM-1 ovarian; monotherapy; read-out: mono GI50. The protocol:
as §1, §2, §3, §4, §5, §6

The test system of assay [15] is KURAMOCHI
Kind of assay: 144-hour CellTiter-Glo 2.0 proliferation assay. Particulars: KURAMOCHI ovarian; monotherapy; read-out: mono GI50. The method, then:
as §1, §2, §3, §4, §5, §6

For assay [16], the system named is SJ-G2 IDHm. The experiment in a line: 7 days treatment combination assay in glioblastoma cell lines (Cell Titer Glow 2.0). To be noted: 168 h, paediatric GBM. The method, then:
(§7) The assay was carried out in the following glioblastoma cell lines: • U87 • U87 R132H • T98G • SJ-G2 ctrl • SJ-G2 IDH using AZD6738 and AZD9574
(§8) The cells were seeded the day before drug treatment in 150 μl per well of 96-well plate. For SJ-G2 cells, the plates were coated with poly-Lysine solution for 15 minutes, washed twice with sterile water and dried for 1 hour.
(§9) The seeding numbers were (cells per well): U87-500; T98G-500; SJ-G2 ctrl-1000; SJ-G2 IDH.
(§10) The compounds were added via a drug dispenser according to the following scheme:
(§11) after 7 Days: • (a) for SJ-G2, 75 μl Cell Titer Glow 2.0 solution (Promega) was added and incubated for 15 minutes at 37° C. The cells were then read using a plate reader. • (b) for U87 and T98G, 75 μl of 37% formaldehyde was added and fixed for 20 minutes at room temperature. This was then washed twice with PBS, followed by Hoeschst staining for 1 hour at room temperature (Hoeschst 1:10000 in PBS). This was then washed twice in PBS and the plates sealed. The plates were then imaged on Cell Insight with 10× magnification at the 25 position. Hoeschst positive nuclei were identified as objects, and cell survival was analysed by counting objects (Hoeschst positive nuclei) with the corresponding settings for U87 or T98G.
(§12) An analysis of drug synergy was then carried out to yield a HSA score

Assay [17] deals with SJ-G2 WT. The assay is described as above. To be noted: 168 h, paediatric GBM. The method, then:
as §7, §8, §9, §10, §11, §12

SMILES strings stand for the structures. pIC50: −log10 of the molar value. Several values for one entry are separate records, joined by “and”; a condition that tells them apart may be missing. Identical values can stand only once. Like-named read-outs stand apart in the source and are kept apart here.

A word on the GI50: it is the concentration that inhibits growth by half. What is called pIC50 is the IC50 on a negative log10 scale, so that one unit is a factor of ten.

With `C[C@@H]1COCCN1c1cc(C2([S@](C)(=N)=O)CC2)nc(-c2ccnc3[nH]ccc23)n1` [AZD6738, 4-{4-[(3R)-3-Methylmorpholin-4-yl]-6-[1-((R)—S-methylsulfonimidoyl)cyclopropyl]pyrimidin-2-yl}-1H-pyrrolo[2,3-b]-pyridine], the GI50 in assay [1] came out at 1150 nM; in assay [2], 1220 nM; in assay [3] it was 667 nM; in assay [4], 1090 nM; in assay [5], 1920 nM; in [6], 921 nM. For the same compound, the GI50 in [7] is 1030 nM; in assay [8] it was 370 nM; in assay [9] it was 476 nM and 534 nM; in assay [10] (Homo sapiens, MIA PaCa-2, MIA PaCa-2 pancreatic), 1200 nM; in assay [10] (MIA PaCa-2 pancreatic) it was 1930 nM; in assay [11], 1470 nM. The GI50 worked out at 858 nM in assay [12] (Homo sapiens, PSN1, PSN1 pancreatic); 746 nM in assay [12] (PSN1 pancreatic); 250 nM in assay [13]; 939 nM in assay [14]; 728 nM in assay [15]. The pIC50 in assay [16] was 6.51; in assay [17] it was 6.80.
